Experimental data reported in ChEMBL document CHEMBL6109147, “Discovery of Potent STING Inhibitors Bearing a Difluorobenzodioxol Structural Motif as Potent Anti-Inflammatory Agents” (J Med Chem, 2025).
Calls of active or inactive are those of the source. The rule behind the calls is not given here.

Legend:
[1] = system: Mus musculus; assay: Anti-inflammatory activity in TREX1 D18N mouse model assessed as reduction in Isg15 mRNA expression in kidney at 10 mg/kg, ip measured after 2 weeks; assay type: functional, organism-based
[2] = molecular target: T1, Stimulator of interferon genes protein (Mus musculus, UniProt Q3TBT3); assay: Inhibition of mouse STING in mouse RAW cells assessed as secreted luciferase reporter of interferon stimulated gene (ISG) measured after 24 hrs incubation by QUANTI-Luc detection assay; assay type: cell-based
T1 sequence (Q3TBT3 whole entry): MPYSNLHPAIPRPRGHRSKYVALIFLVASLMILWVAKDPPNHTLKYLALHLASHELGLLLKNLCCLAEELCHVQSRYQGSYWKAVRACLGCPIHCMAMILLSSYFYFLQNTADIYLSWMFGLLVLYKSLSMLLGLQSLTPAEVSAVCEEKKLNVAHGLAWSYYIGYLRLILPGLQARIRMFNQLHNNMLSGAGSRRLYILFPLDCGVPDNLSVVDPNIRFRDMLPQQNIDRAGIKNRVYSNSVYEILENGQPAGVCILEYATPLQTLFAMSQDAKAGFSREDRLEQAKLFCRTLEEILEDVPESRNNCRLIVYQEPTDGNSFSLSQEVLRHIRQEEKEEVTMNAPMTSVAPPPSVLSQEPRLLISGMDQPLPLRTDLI

[3] = Half life in Sprague-Dawley rat at 1 mg/kg, iv; assay type: ADME, organism-based; details: in vivo
[4] = Volume of distribution at steady state in Sprague-Dawley rat at 1 mg/kg, iv; assay type: ADME, organism-based; details: Sprague-Dawley, in vivo, read-out: Vdss
[5] = Clearance in Sprague-Dawley rat at 1 mg/kg, iv; assay type: ADME, organism-based; details: in vivo
[6] = AUC (0 to infinity) in Sprague-Dawley rat at 3 mg/kg, po; assay type: ADME, organism-based; details: in vivo
[7] = Metabolic stability in mouse liver microsomes assessed as microsomal intrinsic clearance; assay type: ADME, Microsome; details: read-out: CLH
[8] = Metabolic stability in rat liver microsomes assessed as microsomal intrinsic clearance; assay type: ADME, Microsome; details: read-out: CLH
[9] = molecular target: Stimulator of interferon genes protein (Homo sapiens) (UniProt Q86WV6); assay: Inhibition of STING downstream signalling in human THP1-Dual cells assessed as inhibition of MSA-2 induced IFN-beta secretion at 0.3 to 3 uM pre-treated for 1 hr followed by stimulated with MSA-2 measured after 24 hrs by ELISA; assay type: cell-based; details: dose 0.3-3 µM, time 25.0 hrs
Sequence of Stimulator of interferon genes protein (Homo sapiens) (Q86WV6 whole entry): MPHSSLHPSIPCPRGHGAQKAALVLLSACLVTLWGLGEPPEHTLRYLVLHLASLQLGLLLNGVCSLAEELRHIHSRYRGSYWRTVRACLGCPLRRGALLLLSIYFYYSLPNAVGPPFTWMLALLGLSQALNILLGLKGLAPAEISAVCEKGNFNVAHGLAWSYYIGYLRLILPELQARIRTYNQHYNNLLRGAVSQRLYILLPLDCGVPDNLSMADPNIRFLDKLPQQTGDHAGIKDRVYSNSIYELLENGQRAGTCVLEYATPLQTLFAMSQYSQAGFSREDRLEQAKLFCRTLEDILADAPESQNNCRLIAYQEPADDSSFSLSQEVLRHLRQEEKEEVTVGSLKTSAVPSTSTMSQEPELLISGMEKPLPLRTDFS

[10] = molecular target: Stimulator of interferon genes protein (Homo sapiens) (UniProt Q86WV6); assay: Inhibition of human wild type STING (R232) expressed in human 293-Dual hSTING-R232 cells assessed as inhibition of secreted luciferase reporter of interferon stimulated gene (ISG) measured after 24 hrs incubation; assay type: cell-based
[11] = molecular target: Stimulator of interferon genes protein (Homo sapiens) (UniProt Q86WV6); assay: Inhibition of human wild type STING (R232) expressed in human 293-Dual hSTING-R232 cells assessed as reduction in cGAMP-induced IL-6 expression; assay type: cell-based
[12] = molecular target: Stimulator of interferon genes protein (Homo sapiens) (UniProt Q86WV6); assay: Inhibition of human wild type STING (R232) expressed in human 293-Dual hSTING-R232 cells assessed as reduction in cGAMP-induced TNF-alpha expression; assay type: cell-based
[13] = system: Stimulator of interferon genes protein (Homo sapiens), Q86WV6 [UNDEFINED MUTATION]; assay: Inhibition of human STING expressed in 293T-Dual-hSTING-293Q cells assessed as reduction in cGAMP-induced secreted luciferase reporter of interferon stimulated gene (ISG) measured after 24 hrs incubation; assay type: cell-based
Sequence of Stimulator of interferon genes protein (Homo sapiens), Q86WV6 [UNDEFINED MUTATION] (Q86WV6 whole entry, looked up, change not shown): as the sequence (Q86WV6 whole entry) above

[14] = molecular target: T2, Stimulator of interferon genes protein (Mus musculus) (UniProt Q3TBT3); assay: Inhibition of STING downstream signalling in mouse RAW264.7 cells assessed as inhibition of […] induced IP-10 secretion level at 0.3 to 3 uM pre-treated for 1 hr followed by stimulated with […] measured after 24 hrs by ELISA; assay type: cell-based; details: dose 0.3-3 µM, time 25.0 hrs
T2 sequence (whole entry): T1 sequence (Q3TBT3 whole entry)

[15] = molecular target: T2, Stimulator of interferon genes protein (Mus musculus); assay: Inhibition of STING downstream signalling in mouse BMDM cells assessed as inhibition of MSA-2 induced Isg56 mRNA level pre-treated for 1 hr followed by stimulated with MSA-2 measured after 4 hrs by real-time PCR analysis; assay type: cell-based; details: dose 0.3-3 µM, time 5.0 hrs
[16] = molecular target: T2, Stimulator of interferon genes protein (Mus musculus); assay: Inhibition of STING downstream signalling in mouse BMDM cells assessed as inhibition of MSA-2 induced Ccl5 mRNA level pre-treated for 1 hr followed by stimulated with MSA-2 measured after 4 hrs by real-time PCR analysis; assay type: cell-based; details: dose 0.3-3 µM, time 5.0 hrs
[17] = molecular target: T2, Stimulator of interferon genes protein (Mus musculus); assay: Inhibition of STING downstream signalling in mouse BMDM cells assessed as inhibition of MSA-2 induced TBK1 phosphorylation pre-treated for 1 hr followed by stimulated with MSA-2 measured after 4 hrs by Western blot analysis; assay type: cell-based; details: dose 0.3-3 µM, time 5.0 hrs
[18] = system: Mus musculus; assay: Anti-inflammatory activity against MSA-2 induced C57BL/6 mouse inflammation model assessed as inhibition of MSA-2 induced IP-10 level in kidney at 10 mg/kg, ip pre-treated for 1 hr followed by stimulated with MSA-2 for 4 hrs by ELISA; assay type: functional, organism-based; details: time 5.0 hrs
[19] = system: Mus musculus; assay: Anti-inflammatory activity against MSA-2 induced C57BL/6 mouse inflammation model assessed as inhibition of MSA-2 induced TNF-alpha mRNA expression in kidney at 10 mg/kg, ip pre-treated for 1 hr followed by stimulated with MSA-2 for 4 hrs by real-time PCR analysis; assay type: functional, organism-based; details: time 5.0 hrs
[20] = system: Mus musculus; assay: Anti-inflammatory activity against MSA-2 induced C57BL/6 mouse inflammation model assessed as inhibition of MSA-2 induced Isg15 mRNA expression in kidney at 10 mg/kg, ip pre-treated for 1 hr followed by stimulated with MSA-2 for 4 hrs by real-time PCR analysis; assay type: functional, organism-based; details: time 5.0 hrs
[21] = system: Mus musculus; assay: Anti-inflammatory activity against Cisplatin induced C57BL/6 mouse kidney inflammation model assessed as suppression of Cisplatin induced Isg15 mRNA level in kidney at 5 mg/kg, ip treated for 3 days by real-time PCR analysis; assay type: functional, organism-based; details: time 3.0 day
[22] = system: Mus musculus; assay: Anti-inflammatory activity against Cisplatin induced C57BL/6 STING-KO mouse kidney inflammation model assessed as prevention of Cisplatin induced interstitial vacuolation at 5 mg/kg, ip treated for 3 days; assay type: functional, organism-based; details: time 3.0 day
[23] = system: Mus musculus; assay: Effect on Ifn-beta expression in Cisplatin induced C57BL/6 STING-KO mouse kidney inflammation model at 5 mg/kg, ip treated for 3 days by real-time PCR analysis; assay type: functional, organism-based; details: time 3.0 day
[24] = system: Mus musculus; assay: Prevention of body weight loss in Cisplatin induced C57BL/6 mouse kidney inflammation model at 5 mg/kg, ip treated for 3 days; assay type: functional, organism-based; details: time 3.0 day
[25] = system: Mus musculus; assay: Anti-inflammatory activity in TREX1 D18N mouse model assessed as reduction in IL6 mRNA expression in kidney at 10 mg/kg, ip measured after 2 weeks; assay type: functional, organism-based
[26] = system: Mus musculus; assay: Anti-inflammatory activity in TREX1 D18N mouse model assessed as reduction in Ccl5 mRNA expression in kidney at 10 mg/kg, ip measured after 2 weeks; assay type: functional, organism-based
[27] = system: Mus musculus; assay: Anti-inflammatory activity in TREX1 D18N mouse model assessed as reduction in Isg15 mRNA expression in heart at 10 mg/kg, ip measured after 2 weeks; assay type: functional, organism-based
[28] = system: Mus musculus; assay: Anti-inflammatory activity in TREX1 D18N mouse model assessed as reduction in Ccl5 mRNA expression in heart at 10 mg/kg, ip measured after 2 weeks; assay type: functional, organism-based
[29] = system: Mus musculus; assay: Anti-inflammatory activity in TREX1 D18N mouse model assessed as reduction in Ifn-beta mRNA expression in heart at 10 mg/kg, ip measured after 2 weeks; assay type: functional, organism-based

For `N#CC/C=C/c1ccc2[nH]cc(NC(=O)Nc3ccc4c(c3)OC(F)(F)O4)c2c1`, the Activity [1] was “Active”, the IC50 [2] was 96.3 nM and the half-life [3] was 19.8 min. The Vd [4] was 2.38 L/kg, the clearance [5] was 88.1 mL/min/kg and the AUC(0-inf) [6] was 74.8 ng·h/mL. The microsomal CLint [7] was 52 µL/min/mg, the microsomal CLint [8] was 36 µL/min/mg and the inhibition [9] was “Active”. For the same compound, the inhibition [10] was “Active”, the inhibition [11] was “Active” and the inhibition [12] was “Active”. The inhibition [13] was “Active”, the inhibition [14] was “Active” and the inhibition [15] was “Dose-dependent-effect”. For the same compound, the inhibition [16] was “Dose-dependent-effect”, the inhibition [17] was “Dose-dependent-effect” and the inhibition [18] was “Active”. For the same compound, the inhibition [19] was “Active”, the inhibition [20] was “Active” and the inhibition [21] was “Active”. For the same compound, the Activity [22] was “inactive”, the Activity [23] was “inactive” and the Activity [24] was “inactive”. For the same compound, the Activity [25] was “Active”, the Activity [26] was “Active” and the Activity [27] was “Active”. For the same compound, the Activity [28] was “Active” and the Activity [29] was “Active”.
